The target in one test is KRas G12A (Homo sapiens, UniProt P01116, G12A). The test is classed as binding. The note with it: TR-FRET displacement, read-out: Binding to KRas (IC50 nM) G12A.
For a further test, the target named is KRas G12D (Homo sapiens, UniProt P01116, G12D). Nature of the test: biochemical. Conditions: Binding to KRas (IC50 nM) G12D, TR-FRET displacement, KRas G12D. For orientation: Time-resolved FRET reads energy transfer from a long-lived donor to a nearby acceptor.
The next test deals with KRas G12R (Homo sapiens, UniProt P01116, G12R). Briefly: biochemical. The note with it: Binding to KRas (IC50 nM) G12R, TR-FRET displacement, KRas G12R.
KRas G12R, sequence (P01116 1-169 isoform P01116-2 G12R): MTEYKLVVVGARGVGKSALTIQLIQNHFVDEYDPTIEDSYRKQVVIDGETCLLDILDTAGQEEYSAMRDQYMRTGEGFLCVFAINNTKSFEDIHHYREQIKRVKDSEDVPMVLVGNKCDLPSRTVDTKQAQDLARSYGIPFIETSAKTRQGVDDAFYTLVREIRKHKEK
The target in the next test is KRas Q61H (Homo sapiens, UniProt P01116, Q61H). Nature of the test: KRas binding assay (TR-FRET displacement), KRas Q61H. The note with it: TR-FRET displacement.
KRas Q61H, sequence (P01116 1-169 isoform P01116-2 Q61H): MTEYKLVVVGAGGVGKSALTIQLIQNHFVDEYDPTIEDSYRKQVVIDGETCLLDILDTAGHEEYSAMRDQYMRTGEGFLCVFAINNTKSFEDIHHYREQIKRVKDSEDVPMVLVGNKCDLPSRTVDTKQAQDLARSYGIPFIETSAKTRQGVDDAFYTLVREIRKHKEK
For a further test, the target named is KRas G12S (Homo sapiens, UniProt P01116, G12S). The test is classed as binding. The note with it: TR-FRET displacement, read-out: Binding to KRas (IC50 nM) G12S.
KRas G12S, sequence (P01116 1-169 isoform P01116-2 G12S): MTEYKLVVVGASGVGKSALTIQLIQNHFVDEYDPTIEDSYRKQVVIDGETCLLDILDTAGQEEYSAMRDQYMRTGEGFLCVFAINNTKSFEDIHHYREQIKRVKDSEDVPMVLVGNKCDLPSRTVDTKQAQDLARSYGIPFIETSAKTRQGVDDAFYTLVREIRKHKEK
In the next test the target is KRas G12V (Homo sapiens, UniProt P01116, G12V). Nature of the test: biochemical. The note with it: Binding to KRas (IC50 nM) G12V, TR-FRET displacement, KRas G12V.
KRas G12V, sequence (P01116 1-169 isoform P01116-2 G12V): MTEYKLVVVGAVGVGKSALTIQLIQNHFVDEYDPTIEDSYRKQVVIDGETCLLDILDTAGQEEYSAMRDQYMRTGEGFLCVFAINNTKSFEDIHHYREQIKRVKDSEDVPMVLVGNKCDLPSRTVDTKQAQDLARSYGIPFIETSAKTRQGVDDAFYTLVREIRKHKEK
In a further test the target is KRas G12C (Homo sapiens, UniProt P01116, G12C). It is filed as binding. Conditions: TR-FRET displacement, read-out: Binding to KRas (IC50 nM) G12C.
KRas G12C, sequence (P01116 1-169 isoform P01116-2 G12C): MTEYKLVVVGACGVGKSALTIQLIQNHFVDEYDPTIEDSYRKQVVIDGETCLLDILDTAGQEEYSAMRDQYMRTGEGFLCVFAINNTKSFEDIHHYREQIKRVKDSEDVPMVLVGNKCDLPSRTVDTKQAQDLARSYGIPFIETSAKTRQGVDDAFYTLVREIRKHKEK
The next test deals with KRas G13D (Homo sapiens, UniProt P01116, G13D). It is filed as binding. The note with it: TR-FRET displacement, read-out: Binding to KRas (IC50 nM) G13D.
KRas G13D, sequence (P01116 1-169 isoform P01116-2 G13D): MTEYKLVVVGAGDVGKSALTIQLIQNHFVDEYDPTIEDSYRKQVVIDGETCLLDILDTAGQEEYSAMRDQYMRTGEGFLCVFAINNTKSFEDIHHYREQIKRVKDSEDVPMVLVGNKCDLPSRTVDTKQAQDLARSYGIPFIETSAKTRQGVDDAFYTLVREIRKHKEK
The target of a further test is KRas WT (Homo sapiens, UniProt P01116). Nature of the test: KRas binding assay (TR-FRET displacement), KRas WT. The note with it: TR-FRET displacement.
KRas WT, sequence (P01116 1-169 isoform P01116-2): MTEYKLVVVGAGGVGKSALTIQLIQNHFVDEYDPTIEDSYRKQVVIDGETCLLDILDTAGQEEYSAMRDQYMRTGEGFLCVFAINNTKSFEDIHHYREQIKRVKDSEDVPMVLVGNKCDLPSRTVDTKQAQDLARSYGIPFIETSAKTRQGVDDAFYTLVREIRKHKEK

The record followed here is US20250368649A1, “TETRAHYDROPYRIDOPYRIMIDINE PAN-KRAS INHIBITORS” (Mirati Therapeutics, Inc., priority 2022, published 2025).

The IC50 is the concentration that gives 50% inhibition.

KRas G12D, sequence (P01116 1-169 isoform P01116-2 G12D): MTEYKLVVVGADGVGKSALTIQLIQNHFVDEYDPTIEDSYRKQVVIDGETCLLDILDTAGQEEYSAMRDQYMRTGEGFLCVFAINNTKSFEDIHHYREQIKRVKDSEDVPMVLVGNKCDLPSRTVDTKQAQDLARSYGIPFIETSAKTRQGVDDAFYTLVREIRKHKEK
KRas G12A, sequence (P01116 1-169 isoform P01116-2 G12A): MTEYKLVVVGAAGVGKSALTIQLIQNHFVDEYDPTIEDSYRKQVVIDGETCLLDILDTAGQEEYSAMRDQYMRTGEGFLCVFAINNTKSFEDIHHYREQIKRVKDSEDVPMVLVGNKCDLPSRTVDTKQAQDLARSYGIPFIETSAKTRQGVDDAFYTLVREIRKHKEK

As for `CCc1cccc2cccc(N3CCc4c(nc(OCC56CCCN5CCC6)nc4N4CCC(O)CC(S(C)(=O)=O)C4)C3)c12` (single isomer, unassigned) [Example 479, 1-(7-(8-ethylnaphthalen-1-yl)-2-((tetrahydro-1H-pyrrolizin-7a(5H)-yl)methoxy)-5,6,7,8-tetrahydropyrido[3,4-d]pyrimidin-4-yl)-6-(methylsulfonyl)azepan-4-ol], the IC50 on KRas G12A was determined as 55 nM; on KRas G12D, 99 nM; at KRas G12R it was 130 nM; at KRas Q61H it was 42 nM; at KRas G12S, 56 nM; at KRas G12V, 54 nM. For the same compound, the values for the IC50 at KRas G12C, on KRas G13D and on KRas WT were 81 nM, 32 nM and 33 nM, respectively.
With `CCc1cccc2cccc(N3CCc4c(nc(OCC5(CN(C)C)CC5)nc4NCc4nc(C5CC5)n[nH]4)C3)c12` [Example 675, N-((3-cyclopropyl-1H-1,2,4-triazol-5-yl)methyl)-2-((1-((dimethylamino)methyl)cyclopropyl)methoxy)-7-(8-ethylnaphthalen-1-yl)-5,6,7,8-tetrahydropyrido[3,4-d]pyrimidin-4-amine], the IC50 was 17300 nM on KRas G12A; 6300 nM at KRas G12D; 25300 nM at KRas Q61H; 16600 nM on KRas G12S; 3240 nM on KRas G12V; 8480 nM on KRas G12C. For the same compound, the IC50 at KRas G13D was 15300 nM; at KRas WT, 16900 nM.
For `CCc1cccc2cccc(N3CCc4c(nc(OCC5(CN(C)C)CC5)nc4NC4CN(C(=O)NC)C4)C3)c12` [Example 676, 3-((2-((1-((dimethylamino)methyl)cyclopropyl)methoxy)-7-(8-ethylnaphthalen-1-yl)-5,6,7,8-tetrahydropyrido[3,4-d]pyrimidin-4-yl)amino)-N-methylazetidine-1-carboxamide], the IC50 on KRas G12A was 6300 nM; at KRas G12D, 4290 nM; on KRas Q61H, 6700 nM; on KRas G12S it was 7090 nM; at KRas G12V, 1910 nM; on KRas G12C it was 3410 nM. Also, the figures for the IC50 at KRas G13D and on KRas WT were 6220 nM and 5010 nM, respectively.
As for `CCc1cccc2cccc(N3CCc4c(nc(OCC5(CN(C)C)CC5)nc4NCc4cnc(C)nc4N)C3)c12` [Example 677, N-((4-amino-2-methylpyrimidin-5-yl)methyl)-2-((1-((dimethylamino)methyl)cyclopropyl)methoxy)-7-(8-ethylnaphthalen-1-yl)-5,6,7,8-tetrahydropyrido[3,4-d]pyrimidin-4-amine], the IC50 on KRas G12A turned out to be 9110 nM; on KRas G12D, 2330 nM; on KRas Q61H, 14100 nM; on KRas G12S, 13600 nM; on KRas G12V, 4410 nM; on KRas G12C it was 6330 nM. The figures for the IC50 on KRas G13D and at KRas WT were 13900 nM and 11000 nM, respectively.
Turning to `CCc1cccc2cccc(N3CCc4c(nc(OCC5(CN(C)C)CC5)nc4NCc4ccnn4CC(F)F)C3)c12` [Example 683, N-((1-(2,2-difluoroethyl)-1H-pyrazol-5-yl)methyl)-2-((1-((dimethylamino)methyl)cyclopropyl)methoxy)-7-(8-ethylnaphthalen-1-yl)-5,6,7,8-tetrahydropyrido[3,4-d]pyrimidin-4-amine], the IC50 on KRas G12A is 8280 nM; at KRas G12D, 8310 nM; at KRas Q61H it was 12100 nM; at KRas G12S it was 8600 nM; on KRas G12V it was 5850 nM; on KRas G12C, 5450 nM. In addition, the results for the IC50 on KRas G13D and at KRas WT were 16100 nM and 10800 nM, respectively.
As to `CCc1cccc2cccc(N3CCc4c(nc(OCC5(CN(C)C)CC5)nc4N4CCC(n5cn[nH]c5=O)CC4)C3)c12` [Example 688, 4-(1-(2-((1-((dimethylamino)methyl)cyclopropyl)methoxy)-7-(8-ethylnaphthalen-1-yl)-5,6,7,8-tetrahydropyrido[3,4-d]pyrimidin-4-yl)piperidin-4-yl)-2,4-dihydro-3H-1,2,4-triazol-3-one], the IC50 at KRas G12A turned out to be 9730 nM; at KRas G12D, 37400 nM; at KRas Q61H, 18100 nM; on KRas G12S, 17700 nM; on KRas G12V it was 6430 nM; on KRas G12C it was 10000 nM. Besides, the IC50 was found to be 14500 nM on KRas G13D and 14600 nM at KRas WT.
Take `CCc1cccc2cccc(N3CCc4c(nc(OCC5(CN(C)C)CC5)nc4N4CCCn5nc(CO)cc5C4)C3)c12` [Example 694, (5-(2-((1-((dimethylamino)methyl)cyclopropyl)methoxy)-7-(8-ethylnaphthalen-1-yl)-5,6,7,8-tetrahydropyrido[3,4-d]pyrimidin-4-yl)-5,6,7,8-tetrahydro-4H-pyrazolo[1,5-a][1,4]diazepin-2-yl)methanol]: the IC50 was 2220 nM at KRas G12A; 131 nM at KRas G12D; 4850 nM at KRas Q61H; 946 nM on KRas G12S; 437 nM at KRas G12V; 651 nM on KRas G12C. The IC50 turned out to be 4480 nM on KRas G13D and 1930 nM at KRas WT.
In the case of `CCc1cccc2cccc(N3CCc4c(nc(OCC5(CN(C)C)CC5)nc4NC4CN(c5nccn6nc(C)cc56)C4)C3)c12` [Example 699, 2-((1-((dimethylamino)methyl)cyclopropyl)methoxy)-7-(8-ethylnaphthalen-1-yl)-N-(1-(2-methylpyrazolo[1,5-a]pyrazin-4-yl)azetidin-3-yl)-5,6,7,8-tetrahydropyrido[3,4-d]pyrimidin-4-amine], the IC50 on KRas G12A was 8450 nM; on KRas G12D, 6150 nM; at KRas Q61H, 8740 nM; on KRas G12S, 9980 nM; on KRas G12V, 5460 nM; at KRas G12C, 4200 nM. Moreover, the IC50 came out at 9980 nM on KRas G13D and 7340 nM on KRas WT.
As for `CCc1cccc2cccc(N3CCc4c(nc(OCC5(CN(C)C)CC5)nc4NCc4ncc5c(n4)CCOC5)C3)c12` [Example 701, N-((7,8-dihydro-5H-pyrano[4,3-d]pyrimidin-2-yl)methyl)-2-((1-((dimethylamino)methyl)cyclopropyl)methoxy)-7-(8-ethylnaphthalen-1-yl)-5,6,7,8-tetrahydropyrido[3,4-d]pyrimidin-4-amine], the IC50 at KRas G12A was 6300 nM; on KRas G12D it was 7730 nM; at KRas Q61H, 6070 nM; on KRas G12S, 5830 nM; at KRas G12V, 2030 nM; on KRas G12C it was 3620 nM. Also, the half-maximal inhibitory concentration (IC50) at KRas G13D was 6620 nM; on KRas WT, 5290 nM.
Regarding `CCc1cccc2cccc(N3CCc4c(nc(OCC5(CN(C)C)CC5)nc4NC4CC(n5ccnn5)C4)C3)c12` (stereo not shown) [Example 703, N-(3-(1H-1,2,3-triazol-1-yl)cyclobutyl)-2-((1-((dimethylamino)methyl)cyclopropyl)methoxy)-7-(8-ethylnaphthalen-1-yl)-5,6,7,8-tetrahydropyrido[3,4-d]pyrimidin-4-amine], the IC50 at KRas G12A is 13500 nM; on KRas G12D it was 10700 nM; at KRas Q61H, 15900 nM; on KRas G12S, 13500 nM; on KRas G12V, 4790 nM; at KRas G12C it was 9490 nM. The IC50 worked out at 16100 nM on KRas G13D and 12400 nM at KRas WT.
Consider `CCc1cccc2cccc(N3CCc4c(nc(OCC5(CN(C)C)CC5)nc4NCC4COCC4n4cc(C(N)=O)nn4)C3)c12` (stereo not shown) [Example 705, 1-(4-(((2-((1-((dimethylamino)methyl)cyclopropyl)methoxy)-7-(8-ethylnaphthalen-1-yl)-5,6,7,8-tetrahydropyrido[3,4-d]pyrimidin-4-yl)amino)methyl)tetrahydrofuran-3-yl)-1H-1,2,3-triazole-4-carboxamide], for which the IC50 on KRas G12A was found to be 16500 nM; on KRas G12D it was 3070 nM; at KRas Q61H it was 15900 nM; on KRas G12S, 20500 nM; on KRas G12V it was 8520 nM; on KRas G12C it was 10900 nM. Besides, the 50% inhibitory concentration (IC50) came out at 21800 nM at KRas G13D and 13300 nM on KRas WT.
`CCc1cccc2cccc(N3CCc4c(nc(OCC5(CN(C)C)CC5)nc4NCc4ncc(C#N)c(N)n4)C3)c12` [Example 706, 4-amino-2-(((2-((1-((dimethylamino)methyl)cyclopropyl)methoxy)-7-(8-ethylnaphthalen-1-yl)-5,6,7,8-tetrahydropyrido[3,4-d]pyrimidin-4-yl)amino)methyl)pyrimidine-5-carbonitrile]: the IC50 on KRas G12A was 2810 nM; at KRas G12D, 7670 nM; at KRas Q61H it was 3770 nM; on KRas G12S, 2820 nM; on KRas G12V, 2200 nM; at KRas G12C it was 1680 nM. In addition, the IC50 at KRas G13D was found to be 3330 nM; on KRas WT, 3310 nM.
